According to ChEMBL document CHEMBL1145783, “Development of an orexin-2 receptor selective agonist, [Ala(11), D-Leu(15)]orexin-B” (Bioorg Med Chem Lett, 2003):
pEC50: −log10 of the molar value.

What follows are compounds tested against T1, Orexin receptor type 2 (Homo sapiens, UniProt O43614) (assay: Agonist activity against human orexin 2 receptor; EC50; nM).
T1 sequence (O43614 whole entry): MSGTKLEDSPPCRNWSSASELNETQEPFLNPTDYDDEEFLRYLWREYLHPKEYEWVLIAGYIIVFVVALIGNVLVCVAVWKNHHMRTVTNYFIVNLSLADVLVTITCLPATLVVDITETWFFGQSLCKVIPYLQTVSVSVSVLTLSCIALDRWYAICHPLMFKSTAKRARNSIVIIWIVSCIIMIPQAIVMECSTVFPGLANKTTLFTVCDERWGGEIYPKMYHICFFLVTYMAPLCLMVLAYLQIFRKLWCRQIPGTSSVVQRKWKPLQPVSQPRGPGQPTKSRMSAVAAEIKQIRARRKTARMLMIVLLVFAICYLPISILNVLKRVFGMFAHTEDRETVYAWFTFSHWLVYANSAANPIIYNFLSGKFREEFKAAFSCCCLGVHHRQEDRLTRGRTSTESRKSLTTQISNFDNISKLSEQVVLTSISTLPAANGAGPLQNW
Type: functional
H-MTLIGAAHNGSAQLARQLRGQLGPPGSR-NH2 gave a pEC50 of 10.19. For `CC[C@H](C)[C@H](NC(=O)[C@H](CC(C)C)NC(=O)[C@@H](NC(=O)[C@@H](N)CCSC)[C@@H](C)O)C(=O)NCC(=O)N[C@H](C)C(=O)N[C@@H](C)C(=O)N[C@@H](Cc1c[nH]cn1)C(=O)N[C@@H](CC(N)=O)C(=O)NCC(=O)N[C@@H](CO)C(=O)N[C@@H](C)C(=O)N[C@@H](CCC(N)=O)C(=O)N[C@@H](CC(C)C)C(=O)N[C@@H](CC(C)C)C(=O)N[C@@H](CCCN=C(N)N)C(=O)N[C@@H](CCC(N)=O)C(=O)N[C@@H](CC(C)C)C(=O)N[C@@H](CCCN=C(N)N)C(=O)NCC(=O)N[C@@H](CCC(N)=O)C(=O)N[C@@H](CC(C)C)C(=O)NCC(=O)N1CCC[C@H]1C(=O)N1CCC[C@H]1C(=O)NCC(=O)N[C@@H](CO)C(=O)N[C@@H](CCCN=C(N)N)C(N)=O`, the pEC50 was 7.85. Work on `CC[C@H](C)[C@H](NC(=O)[C@H](CC(C)C)NC(=O)[C@@H](NC(=O)[C@@H](N)CCSC)[C@@H](C)O)C(=O)NCC(=O)N[C@@H](C)C(=O)N[C@@H](C)C(=O)N[C@@H](Cc1cnc[nH]1)C(=O)N[C@@H](CC(N)=O)C(=O)NCC(=O)N[C@@H](CO)C(=O)N[C@@H](C)C(=O)N[C@@H](CCC(N)=O)C(=O)N[C@@H](CC(C)C)C(=O)N[C@@H](CC(C)C)C(=O)N[C@@H](CCCN=C(N)N)C(=O)N[C@@H](CCC(N)=O)C(=O)N[C@@H](C)C(=O)N[C@@H](CCCN=C(N)N)C(=O)NCC(=O)N[C@@H](CCC(N)=O)C(=O)N[C@@H](CC(C)C)C(=O)NCC(=O)N1CCC[C@H]1C(=O)N1CCC[C@H]1C(=O)NCC(=O)N[C@@H](CO)C(=O)N[C@@H](CCCN=C(N)N)C(N)=O` yielded a pEC50 of 10.18. Work on `CSCC[C@H](N)C(=O)N[C@H](C(=O)N[C@@H](CC(C)C)C(=O)N[C@H](C)C(=O)NCC(=O)N[C@@H](C)C(=O)N[C@@H](C)C(=O)N[C@@H](Cc1c[nH]cn1)C(=O)N[C@@H](CC(N)=O)C(=O)NCC(=O)N[C@@H](CO)C(=O)N[C@@H](C)C(=O)N[C@@H](CCC(N)=O)C(=O)N[C@@H](CC(C)C)C(=O)N[C@@H](CC(C)C)C(=O)N[C@@H](CCCN=C(N)N)C(=O)N[C@@H](CCC(N)=O)C(=O)N[C@@H](CC(C)C)C(=O)N[C@@H](CCCN=C(N)N)C(=O)NCC(=O)N[C@@H](CCC(N)=O)C(=O)N[C@@H](CC(C)C)C(=O)NCC(=O)N1CCC[C@H]1C(=O)N1CCC[C@H]1C(=O)NCC(=O)N[C@@H](CO)C(=O)N[C@@H](CCCN=C(N)N)C(N)=O)[C@@H](C)O` yielded a pEC50 of under 6.41. Work on H-MTLIGAAHNGSAQLLRQLRGQAGPPGSR-NH2 yielded a pEC50 of 9.92. With `CC[C@H](C)[C@H](NC(=O)[C@H](CC(C)C)NC(=O)[C@@H](NC(=O)[C@@H](N)CCSC)[C@@H](C)O)C(=O)NCC(=O)N[C@@H](C)C(=O)N[C@@H](C)C(=O)N[C@@H](Cc1c[nH]cn1)C(=O)N[C@@H](CC(N)=O)C(=O)NCC(=O)N[C@H](CO)C(=O)N[C@@H](C)C(=O)N[C@@H](CCC(N)=O)C(=O)N[C@@H](CC(C)C)C(=O)N[C@@H](CC(C)C)C(=O)N[C@@H](CCCN=C(N)N)C(=O)N[C@@H](CCC(N)=O)C(=O)N[C@@H](CC(C)C)C(=O)N[C@@H](CCCN=C(N)N)C(=O)NCC(=O)N[C@@H](CCC(N)=O)C(=O)N[C@@H](CC(C)C)C(=O)NCC(=O)N1CCC[C@H]1C(=O)N1CCC[C@H]1C(=O)NCC(=O)N[C@@H](CO)C(=O)N[C@@H](CCCN=C(N)N)C(N)=O` the pEC50 was 9.34. For H-MTAIGAAHNGSAQLLRQLRGQLGPPGSR-NH2, the pEC50 was 6.85. In the case of H-MTLIGAAHAGSAQLLRQLRGQLGPPGSR-NH2, the pEC50 was 8.64. Compound `CC[C@H](C)[C@H](NC(=O)[C@H](CC(C)C)NC(=O)[C@@H](NC(=O)[C@@H](N)CCSC)[C@@H](C)O)C(=O)NCC(=O)N[C@@H](C)C(=O)N[C@@H](C)C(=O)N[C@@H](Cc1c[nH]cn1)C(=O)N[C@@H](CC(N)=O)C(=O)NCC(=O)N[C@@H](CO)C(=O)N[C@@H](C)C(=O)N[C@@H](CCC(N)=O)C(=O)N[C@@H](CC(C)C)C(=O)N[C@@H](CC(C)C)C(=O)N[C@@H](CCCN=C(N)N)C(=O)N[C@@H](CCC(N)=O)C(=O)N[C@@H](CC(C)C)C(=O)N[C@@H](CCCN=C(N)N)C(=O)NCC(=O)N[C@@H](CCC(N)=O)C(=O)N[C@@H](CC(C)C)C(=O)NCC(=O)N1CCC[C@H]1C(=O)N1CCC[C@H]1C(=O)NCC(=O)N[C@H](CO)C(=O)N[C@@H](CCCN=C(N)N)C(N)=O` has a pEC50 of 9.82. `CC[C@H](C)[C@H](NC(=O)[C@H](CC(C)C)NC(=O)[C@@H](NC(=O)[C@@H](N)CCSC)[C@@H](C)O)C(=O)NCC(=O)N[C@@H](C)C(=O)N[C@@H](C)C(=O)N[C@@H](Cc1c[nH]cn1)C(=O)N[C@@H](CC(N)=O)C(=O)NCC(=O)N[C@@H](CO)C(=O)N[C@@H](C)C(=O)N[C@H](CCC(N)=O)C(=O)N[C@@H](CC(C)C)C(=O)N[C@@H](CC(C)C)C(=O)N[C@@H](CCCN=C(N)N)C(=O)N[C@@H](CCC(N)=O)C(=O)N[C@@H](CC(C)C)C(=O)N[C@@H](CCCN=C(N)N)C(=O)NCC(=O)N[C@@H](CCC(N)=O)C(=O)N[C@@H](CC(C)C)C(=O)NCC(=O)N1CCC[C@H]1C(=O)N1CCC[C@H]1C(=O)NCC(=O)N[C@@H](CO)C(=O)N[C@@H](CCCN=C(N)N)C(N)=O` showed a pEC50 of 9.39. `CC[C@H](C)[C@H](NC(=O)[C@H](CC(C)C)NC(=O)[C@@H](NC(=O)[C@@H](N)CCSC)[C@@H](C)O)C(=O)NCC(=O)N[C@@H](C)C(=O)N[C@@H](C)C(=O)N[C@@H](Cc1c[nH]cn1)C(=O)N[C@@H](CC(N)=O)C(=O)NCC(=O)N[C@@H](CO)C(=O)N[C@@H](C)C(=O)N[C@@H](CCC(N)=O)C(=O)N[C@@H](CC(C)C)C(=O)N[C@@H](CC(C)C)C(=O)N[C@@H](CCCN=C(N)N)C(=O)N[C@H](CCC(N)=O)C(=O)N[C@H](CC(C)C)C(=O)N[C@@H](CCCN=C(N)N)C(=O)NCC(=O)N[C@@H](CCC(N)=O)C(=O)N[C@@H](CC(C)C)C(=O)NCC(=O)N1CCC[C@H]1C(=O)N1CCC[C@H]1C(=O)NCC(=O)N[C@@H](CO)C(=O)N[C@@H](CCCN=C(N)N)C(N)=O` gave a pEC50 of 9.96. Work on `CC[C@H](C)[C@H](NC(=O)[C@H](CC(C)C)NC(=O)[C@@H](NC(=O)[C@@H](N)CCSC)[C@@H](C)O)C(=O)NCC(=O)N[C@@H](C)C(=O)N[C@@H](C)C(=O)N[C@H](Cc1cnc[nH]1)C(=O)N[C@@H](CC(N)=O)C(=O)NCC(=O)N[C@@H](CO)C(=O)N[C@@H](C)C(=O)N[C@@H](CCC(N)=O)C(=O)N[C@@H](CC(C)C)C(=O)N[C@@H](CC(C)C)C(=O)N[C@@H](CCCN=C(N)N)C(=O)N[C@@H](CCC(N)=O)C(=O)N[C@@H](CC(C)C)C(=O)N[C@@H](CCCN=C(N)N)C(=O)NCC(=O)N[C@@H](CCC(N)=O)C(=O)N[C@@H](CC(C)C)C(=O)NCC(=O)N1CCC[C@H]1C(=O)N1CCC[C@H]1C(=O)NCC(=O)N[C@@H](CO)C(=O)N[C@@H](CCCN=C(N)N)C(N)=O` yielded a pEC50 of 9.00. H-MTLIGAAHNGSAQALRQLRGQLGPPGSR-NH2 gave a pEC50 of 8.66. Work on `CC[C@H](C)[C@H](NC(=O)[C@H](CC(C)C)NC(=O)[C@@H](NC(=O)[C@@H](N)CCSC)[C@@H](C)O)C(=O)NCC(=O)N[C@@H](C)C(=O)N[C@@H](C)C(=O)N[C@@H](Cc1cnc[nH]1)C(=O)N[C@H](CC(N)=O)C(=O)NCC(=O)N[C@@H](CO)C(=O)N[C@@H](C)C(=O)N[C@@H](CCC(N)=O)C(=O)N[C@@H](CC(C)C)C(=O)N[C@@H](CC(C)C)C(=O)N[C@@H](CCCN=C(N)N)C(=O)N[C@@H](CCC(N)=O)C(=O)N[C@@H](CC(C)C)C(=O)N[C@@H](CCCN=C(N)N)C(=O)NCC(=O)N[C@@H](CCC(N)=O)C(=O)N[C@@H](CC(C)C)C(=O)NCC(=O)N1CCC[C@H]1C(=O)N1CCC[C@H]1C(=O)NCC(=O)N[C@@H](CO)C(=O)N[C@@H](CCCN=C(N)N)C(N)=O` yielded a pEC50 of 9.59. `CC[C@H](C)[C@H](NC(=O)[C@H](CC(C)C)NC(=O)[C@@H](NC(=O)[C@@H](N)CCSC)[C@@H](C)O)C(=O)N[C@H](C)C(=O)N[C@@H](C)C(=O)N[C@@H](C)C(=O)N[C@@H](Cc1cnc[nH]1)C(=O)N[C@@H](CC(N)=O)C(=O)NCC(=O)N[C@@H](CO)C(=O)N[C@@H](C)C(=O)N[C@@H](CCC(N)=O)C(=O)N[C@@H](CC(C)C)C(=O)N[C@@H](CC(C)C)C(=O)N[C@@H](CCCN=C(N)N)C(=O)N[C@@H](CCC(N)=O)C(=O)N[C@@H](CC(C)C)C(=O)N[C@@H](CCCN=C(N)N)C(=O)NCC(=O)N[C@@H](CCC(N)=O)C(=O)N[C@@H](CC(C)C)C(=O)NCC(=O)N1CCC[C@H]1C(=O)N1CCC[C@H]1C(=O)NCC(=O)N[C@@H](CO)C(=O)N[C@@H](CCCN=C(N)N)C(N)=O` showed a pEC50 of 7.17. `CC[C@H](C)[C@H](NC(=O)[C@H](CC(C)C)NC(=O)[C@@H](NC(=O)[C@@H](N)CCSC)[C@@H](C)O)C(=O)NCC(=O)N[C@@H](C)C(=O)N[C@@H](C)C(=O)N[C@@H](Cc1cnc[nH]1)C(=O)N[C@@H](CC(N)=O)C(=O)NCC(=O)N[C@@H](CO)C(=O)N[C@@H](C)C(=O)N[C@@H](CCC(N)=O)C(=O)N[C@@H](CC(C)C)C(=O)N[C@@H](CC(C)C)C(=O)N[C@@H](CCCN=C(N)N)C(=O)N[C@@H](CCC(N)=O)C(=O)N[C@H](CC(C)C)C(=O)N[C@@H](CCCN=C(N)N)C(=O)NCC(=O)N[C@@H](CCC(N)=O)C(=O)N[C@@H](CC(C)C)C(=O)NCC(=O)N1CCC[C@H]1C(=O)N1CCC[C@H]1C(=O)NCC(=O)N[C@@H](CO)C(=O)N[C@@H](CCCN=C(N)N)C(N)=O` was tested, and the pEC50 was 9.22. With `CC[C@H](C)[C@H](NC(=O)[C@H](CC(C)C)NC(=O)[C@@H](NC(=O)[C@@H](N)CCSC)[C@@H](C)O)C(=O)NCC(=O)N[C@@H](C)C(=O)N[C@@H](C)C(=O)N[C@@H](Cc1c[nH]cn1)C(=O)N[C@@H](CC(N)=O)C(=O)NCC(=O)N[C@@H](CO)C(=O)N[C@@H](C)C(=O)N[C@@H](CCC(N)=O)C(=O)N[C@H](CC(C)C)C(=O)N[C@@H](CC(C)C)C(=O)N[C@@H](CCCN=C(N)N)C(=O)N[C@@H](CCC(N)=O)C(=O)N[C@@H](CC(C)C)C(=O)N[C@@H](CCCN=C(N)N)C(=O)NCC(=O)N[C@@H](CCC(N)=O)C(=O)N[C@@H](CC(C)C)C(=O)NCC(=O)N1CCC[C@H]1C(=O)N1CCC[C@H]1C(=O)NCC(=O)N[C@@H](CO)C(=O)N[C@@H](CCCN=C(N)N)C(N)=O` the pEC50 was 10.28. Work on H-MTLIGAAHNGSAQLLRALRGQLGPPGSR-NH2 yielded a pEC50 of 9.64.
